These results are taken from paper PMC5111791, “Design of nucleotide-mimetic and non-nucleotide inhibitors of the translation initiation factor eIF4E: Synthesis, structural and functional characterisation” (European Journal of Medicinal Chemistry, 2016).

For data set [1], the target named is T1, eIF4E (Homo sapiens, UniProt P06730). In words: Radiolabelled capped RNA - eIF4E UV cross-linking competition assay. The class given is binding. More on the design: Expression and purification of eIF4E followed a modified procedure of that already published; made in house. The conditions noted are these: capped RNA 5 nM, eIF4E 1.5 μM; for RNA cross-linking assay Inhibition (%): at 100 μM.
T1 sequence (P06730 whole entry): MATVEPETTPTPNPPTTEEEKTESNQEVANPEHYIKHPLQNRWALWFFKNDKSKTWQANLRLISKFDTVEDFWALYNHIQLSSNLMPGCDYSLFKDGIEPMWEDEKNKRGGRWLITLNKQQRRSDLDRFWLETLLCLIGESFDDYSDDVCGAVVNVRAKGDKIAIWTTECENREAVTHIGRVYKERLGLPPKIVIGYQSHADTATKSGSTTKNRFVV

Data set [2] deals with T1, eIF4E. The experiment in a line: Fluorescence polarisation (FP) assay: displacement of EDA-m^7GDP-ATTO-465 tracer from eIF4E. To be noted: for FP assay Inhibition (%): at 100 μM, tracer 10 nM, eIF4E 90 nM; for inhibition at 100 µM: read-out: FP assay Inhibition (%). A general note: Polarisation of emitted light reports the rotation of a fluorescent probe.

With `Cc1cc2cc(C(c3nnnn3C3CCCC3)N3CCC(C)CC3)c(=O)[nH]c2cc1C` (stereo not drawn) [Compound 13], at eIF4E [1], the “RNA cross-linking assay Inhibition (%)” value is recorded as “Inactive”. Besides, the “FP assay Inhibition (%)” value at eIF4E [2] was “Inactive”.

In general, melting point refers to the temperature of the solid-liquid transition. As usually defined, the inhibition is the change of the read-out against control, counted positive when it falls. For the compound `COc1cccc(C[n+]2cn([C@@H]3O[C@H](CNc4c(O)c(=O)c4=O)[C@@H](O)[C@H]3O)c3nc(N)[nH]c(=O)c32)c1` [Compound 4d, 5′-Deoxy-5′-(1,2-dioxo-3-hydroxycyclobut-3-en-4-yl)amino-N^7-3-methoxybenzyl-guano-sine], the melting point was 177 to 179 °C. Also, the “RNA cross-linking assay Inhibition (%)” value on eIF4E [1] is “Inactive”. On eIF4E [2], the inhibition at 100 µM stood at 2 ± 6.3%.

Turning to `Nc1nc2c(c(=O)[nH]1)[n+](Cc1ccccc1)cn2[C@@H]1O[C@H](CNc2c(O)c(=O)c2=O)[C@@H](O)[C@H]1O` [Compound 4b, N^7-Benzyl-5′-deoxy-5′-(1,2-dioxo-3-hydroxy-cyclobut-3-en-4-yl)amino-guanosine], the melting point was 186 to 188 °C. For the same compound, the “RNA cross-linking assay Inhibition (%)” value at eIF4E [1] is “Inactive”. At eIF4E [2], the inhibition at 100 µM is 9.1 ± 5.5%.

`C[n+]1cn([C@@H]2O[C@H](CNc3c(O)c(=O)c3=O)[C@@H](O)[C@H]2O)c2nc(N)[nH]c(=O)c21` [Compound 4a, 5′-Deoxy-5′-(1,2-dioxo-3-hydroxycyclobut-3-en-4-yl)amino-N^7-methyl-guanosine] gave a melting point of 192 to 194 °C. In addition, at eIF4E [1], the “RNA cross-linking assay Inhibition (%)” value is “Inactive”. On eIF4E [2], the inhibition at 100 µM was found to be 14.4 ± 3.2%.

`Cc1cccc(C[n+]2cn([C@@H]3O[C@H](CNc4c(O)c(=O)c4=O)[C@@H](O)[C@H]3O)c3nc(N)[nH]c(=O)c32)c1` [Compound 4c, 5′-Deoxy-5′-(1,2-dioxo-3-hydroxycyclobut-3-en-4-yl)amino-N^7-3-methylbenzyl-guano-sine] displayed a melting point of 187 to 190 °C. In addition, the “RNA cross-linking assay Inhibition (%)” value on eIF4E [1] is recorded as “Inactive”. The inhibition at 100 µM on eIF4E [2] is 15.2 ± 4.7%.

For the compound `Nc1nc2c(c(=O)[nH]1)[n+](Cc1ccc(F)cc1)cn2[C@@H]1O[C@H](CNc2c(O)c(=O)c2=O)[C@@H](O)[C@H]1O` [Compound 4g, 5′-Deoxy-5′-(1,2-dioxo-3-hydroxycyclobut-3-en-4-yl)amino-N^7-4-flurobenzyl-guanosine], the “RNA cross-linking assay Inhibition (%)” value at eIF4E [1] is “Inactive”. Also, the inhibition at 100 µM on eIF4E [2] was determined as 3.9 ± 5.2%.

Take `CCOc1ccc(-n2c(SCC(=O)O)nnc2-c2cccnc2)cc1` [Compound 12a]: the figures for the inhibition at 100 µM on eIF4E [1] and on eIF4E [2] were 10.2 ± 3.3% and 13.6 ± 2.2%, respectively.

`O=C1CC(c2c(Cl)cccc2Cl)c2c(n3ccsc3nc2=O)N1` (stereo not drawn) [Compound 16] gave an inhibition at 100 µM at eIF4E [1] of 33.8 ± 8.1%. The “FP assay Inhibition (%)” value on eIF4E [2] is “Inactive”.

On eIF4E [1], `N=C1NC(=O)/C(=C/c2ccc(Sc3ccc(Cl)cc3)o2)S1` [Compound 15] had an inhibition at 100 µM of 3.5 ± 3.2%. Further, the “FP assay Inhibition (%)” value on eIF4E [2] is listed as “Inactive”.

For the compound `Cc1ccc(-n2c(SCC(N)=O)nnc2-c2ccncc2)cc1` [Compound 12b], the “RNA cross-linking assay Inhibition (%)” value on eIF4E [1] was “Inactive”. Also, the inhibition at 100 µM on eIF4E [2] worked out at 25.8 ± 5.9%.

For `Cc1ccc(-n2c(SCC(N)=O)nnc2-c2cccnc2)cc1` [Compound 12c], the “RNA cross-linking assay Inhibition (%)” value at eIF4E [1] is on record as “Inactive”. At eIF4E [2], the inhibition at 100 µM was determined as 8.5 ± 2.8%.

With `CC(C)(C)c1cc(C[n+]2cn([C@@H]3O[C@H](CNc4c(O)c(=O)c4=O)[C@@H](O)[C@H]3O)c3nc(N)[nH]c(=O)c32)cc(C(C)(C)C)c1` [Compound 4i, N^7-3,5-(di-tert-butyl)benzyl-5′-deoxy-5′-(1,2-dioxo-3-hydroxycyclobut-3-en-4-yl)amino-guanosine], the “RNA cross-linking assay Inhibition (%)” value on eIF4E [1] is recorded as “Inactive”. The “FP assay Inhibition (%)” value at eIF4E [2] was “Inactive”.

Take `C[n+]1cn([C@@H]2O[C@H](CNC(=O)Cc3nnn[nH]3)[C@@H](O)[C@H]2O)c2nc(N)[nH]c(=O)c21` [Compound 11a]: the values for the inhibition at 100 µM on eIF4E [1] and at eIF4E [2] were 25.8 ± 2.9% and 9.7 ± 2.9%, respectively.
